Measured values reported in ChEMBL document CHEMBL1154206, “Bioactive iridoid glucosides from the fruit of Gardenia jasminoides” (J Nat Prod, 2009).
Active and inactive are the calls of the source. No cut-off for these calls is given here.

Each compound was assayed on Drosophila (assay: Short term memory enhancement in human Abeta42 transgenic Drosophila alzheimers disease model dosed for 6 days by pavlovian olfactory learning assay after 8 days).
Type: functional, organism-based

For COC(=O)C1=CO[C@@H](O[C@@H]2O[C@H](CO)[C@@H](O)[C@H](O)[C@H]2O)[C@@H]2C(COC(C)=O)=CC[C@H]12, which Activity is on record?
The Activity was “Active”.

COC(=O)C1=CO[C@@H](O[C@@H]2O[C@H](COC(C)=O)[C@@H](O)[C@H](O)[C@H]2O)[C@@H]2C(CO)=CC[C@H]12 was tested. Which Activity did it give?
The Activity was “Active”.

With COc1cc(/C=C/C(=O)OC[C@H]2O[C@@H](OCC3=CC[C@H]4[C@@H]3COC(=O)[C@@H]4CO)[C@H](O)[C@@H](O)[C@@H]2O)cc(OC)c1O as the compound, how does the Activity read?
Its Activity is “Active”.

For COC(=O)C1=CO[C@@H](O[C@@H]2O[C@H](COC(=O)/C=C/c3cc(OC)c(O)c(OC)c3)[C@@H](O)[C@H](O)[C@H]2O)[C@@H]2C(CO)=CC[C@H]12, which Activity is on record?
The Activity was “Active”.

With COC(=O)C1=CO[C@@H](O[C@@H]2O[C@H](CO)[C@@H](O)[C@H](O)[C@H]2O)[C@@H]2C(COC(=O)CCC(=O)O)=CC[C@H]12 as the compound, how does the Activity read?
The Activity was “Active”.

How did the Activity turn out when COC(=O)C1=CO[C@@H](O[C@@H]2O[C@H](CO)[C@@H](O)[C@H](O)[C@H]2O)[C@@H]2C(CO)=CC[C@H]12 was run?
Its Activity is “Active”.

For COC(=O)C1=CO[C@@H](O[C@@H]2O[C@H](COC(=O)/C=C/c3ccc(O)cc3)[C@@H](O)[C@H](O)[C@H]2O)[C@@H]2C(CO)=CC[C@H]12, which Activity is on record?
Its Activity is “Active”.

With COc1cc(/C=C/C(=O)OC[C@H]2O[C@@H](OC[C@H]3C(=O)OC[C@@H]4C(CO)=CC[C@@H]43)[C@H](O)[C@@H](O)[C@@H]2O)cc(OC)c1O as the compound, how does the Activity read?
Its Activity is “Active”.
